Among the data in patent US10683269B2 (MISSION THERAPEUTICS LIMITED, priority 2016, dated 2020) are IC50 values, retold here.

In general, IC50 refers to the midpoint of a concentration-inhibition curve.

T1 sequence (Q93009 whole entry): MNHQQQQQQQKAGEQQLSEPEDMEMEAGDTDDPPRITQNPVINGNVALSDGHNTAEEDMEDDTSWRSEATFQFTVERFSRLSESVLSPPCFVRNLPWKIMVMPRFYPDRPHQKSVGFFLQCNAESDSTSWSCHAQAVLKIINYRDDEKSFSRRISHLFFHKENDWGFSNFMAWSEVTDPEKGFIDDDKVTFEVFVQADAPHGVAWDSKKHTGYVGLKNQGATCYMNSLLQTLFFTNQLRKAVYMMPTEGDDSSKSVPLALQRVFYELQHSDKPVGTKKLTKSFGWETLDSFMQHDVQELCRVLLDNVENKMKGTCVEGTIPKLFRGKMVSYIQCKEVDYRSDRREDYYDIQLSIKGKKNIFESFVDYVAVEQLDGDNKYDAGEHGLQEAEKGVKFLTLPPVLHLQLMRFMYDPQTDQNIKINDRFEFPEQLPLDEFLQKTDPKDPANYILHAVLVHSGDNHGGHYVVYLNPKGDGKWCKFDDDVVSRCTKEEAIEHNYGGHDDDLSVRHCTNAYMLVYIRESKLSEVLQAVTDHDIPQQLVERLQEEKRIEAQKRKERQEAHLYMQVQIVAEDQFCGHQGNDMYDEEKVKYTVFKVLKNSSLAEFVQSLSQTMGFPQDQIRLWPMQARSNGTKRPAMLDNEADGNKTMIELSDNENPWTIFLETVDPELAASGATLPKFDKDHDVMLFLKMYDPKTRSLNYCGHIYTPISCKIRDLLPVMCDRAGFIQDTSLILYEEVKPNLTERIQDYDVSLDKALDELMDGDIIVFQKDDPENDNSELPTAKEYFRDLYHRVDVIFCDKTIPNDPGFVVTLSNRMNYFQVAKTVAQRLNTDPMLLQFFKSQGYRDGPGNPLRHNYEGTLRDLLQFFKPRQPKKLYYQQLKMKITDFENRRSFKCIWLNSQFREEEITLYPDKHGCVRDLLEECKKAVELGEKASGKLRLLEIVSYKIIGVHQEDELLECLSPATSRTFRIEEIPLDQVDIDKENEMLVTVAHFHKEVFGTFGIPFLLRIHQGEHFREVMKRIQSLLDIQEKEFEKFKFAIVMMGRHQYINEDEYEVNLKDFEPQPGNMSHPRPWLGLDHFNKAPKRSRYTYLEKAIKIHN

The assay addresses T1, USP7 (Homo sapiens, UniProt Q93009).
T1 construct: The USP7 construct was PCR amplified and cloned into a pFLAG-CMV-6a vector (Sigma-Aldrich) with an N-terminal FLAG tag; made in house; host or cells: HEK293T
The experiment in a line: USP7 biochemical IC50 assay (fluorescence polarisation, TAMRA labelled peptide linked to ubiquitin via an iso-peptide bond). As to conditions: 30 min pre-incubation of enzyme and compound, read after 2 hr incubation at room temperature, read-out: IC50 range. On the procedure: In Vitro USP7 Inhibition Assay
Expression and Purification of USP7
The USP7 construct was PCR amplified and cloned into a pFLAG-CMV-6a vector (Sigma-Aldrich) with an N-terminal FLAG tag. HEK293T cells were transfected with FLAG-USP7 using TransIT-LT1 transfection reagent (Mirus) according to the manufacturer's instructions. Cells were harvested 40 hours after transfection. […] The resin was washed two times with low salt buffer plus protease inhibitors (complete mini, Roche) and phosphatase inhibitors (PhosSTOP mini, Roche) and one time with high salt buffer (20 mM Tris, pH 7.5, 500 mM NaCl, 0.5 mM EDTA, 5 mM beta-mercaptoethanol, protease inhibitors (complete mini, Roche) and phosphatase inhibitors (PhosSTOP mini, Roche). To elute the bound USP7, elution buffer (10 mM Tris, pH 7.5, 150 mM NaCl, 0.5 mM EDTA, 10% glycerol, 0.5% NP40, 5 mM beta-mercaptoethanol, 0.15 mg/ml 3×FLAG peptide (Sigma-Aldrich)) was added to the resin and incubated at 4° C. for 2.5 hours rotating. The resin was centrifuged at 4000 rpm for 30 seconds, and the supernatant containing purified FLAG-USP7 was removed and stored at −80° C.
USP7 Biochemical IC50 Assay
A typical 8-point dilution series would be 100, 30, 10, 3, 1, 0.3, 0.1, 0.03 μM final. […] Either 1 μl of 50% DMSO or diluted compound was added to the plate. USP7 was diluted in reaction buffer (20 mM Tris, pH 7.5, 100 mM NaCl, 0.05% Tween 20, 0.5 mg/ml BSA, 5 mM—beta mercaptoethanol) to the equivalent of 0.0025 μl/well and 10 μl of diluted USP7 was added to the compound. Enzyme and compound were incubated for 30 min at room temp. Reactions were initiated by the addition of 50 nM of TAMRA labelled peptide linked to ubiquitin via an iso-peptide bond as fluorescence polarisation substrate. Reactions were read immediately after addition of substrate and following a 2 hr incubation at room temperature. Readings were performed on a Pherastar Plus (BMG Labtech). λ Excitation 540 nm; λ Emission 590 nm.
For orientation: Fluorescence polarisation rises when a labelled molecule tumbles more slowly, as on binding a larger partner.
As to `N#CN1Cc2nccc(-c3cccc(C(=O)NCc4ccccc4)c3)c2C1` [Example 15, N-benzyl-3-(6-cyano-6,7-dihydro-5H-pyrrolo[3,4-b]pyridin-4-yl)benzamide], the IC50 lay within 10000 to 30000 nM.
As for `N#CN1Cc2nccc(-c3ccc(Cl)cc3)c2C1` [Example 16, 4-(4-chlorophenyl)-5,7-dihydro-6H-pyrrolo[3,4-b]pyridine-6-carbonitrile], the figure is 1000 to 10000 nM; as for `COc1ccc(-c2ccnc3c2CN(C#N)C3)cc1` [Example 17, 4-(4-methoxyphenyl)-5,7-dihydro-6H-pyrrolo[3,4-b]pyridine-6-carbonitrile], 1000 to 10000 nM.
Turning to `N#CN1Cc2nccc(-c3cccc(Cl)c3)c2C1` [Example 18, 4-(3-chlorophenyl)-5,7-dihydro-6H-pyrrolo[3,4-b]pyridine-6-carbonitrile], the IC50 was 1000 to 10000 nM.
For the compound `N#CN1Cc2ccnc(-c3ccccc3)c2C1` [Example 19, 4-phenyl-1,3-dihydro-2H-pyrrolo[3,4-c]pyridine-2-carbonitrile], the half-maximal inhibitory concentration (IC50) was 1000 to 10000 nM.
Take `Cc1nc(-c2cc3c(c(-c4ccccc4)c2)CN(C#N)C3)no1` [Example 20, 6-(5-methyl-1,2,4-oxadiazol-3-yl)-4-phenylisoindoline-2-carbonitrile]: the IC50 lay in the range of 1000 to 10000 nM.
Under `N#CN1Cc2cccc(Nc3ncc4ccccc4n3)c2C1` [Example 21, 4-(quinazolin-2-ylamino)isoindoline-2-carbonitrile] stands 1000 to 10000 nM; under `CNC(=O)c1ccc2cnc(Nc3cccc4c3CN(C#N)C4)cc2c1` [Example 22], 1000 to 10000 nM.
Under `N#CN1Cc2cc(NC(=O)c3cccnc3)cc(-c3ccccc3)c2C1` [Example 23, N-(2-cyano-7-phenylisoindolin-5-yl)nicotinamide] stands 30000 to 100000 nM.
As for `CC(=O)Nc1cc2c(c(-c3ccccc3C(N)=O)c1)CN(C#N)C2` [Example 24, 2-(6-acetamido-2-cyanoisoindolin-4-yl)benzamide], the half-maximal inhibitory concentration (IC50) fell in the range of 1000 to 10000 nM.
On to `CN1CCC[C@@H](C(=O)Nc2cc3c(c(-c4cccc(F)c4)c2)CN(C#N)C3)C1` [Example 25, (R)-N-(2-cyano-7-(3-fluorophenyl)isoindolin-5-yl)-1-methylpiperidine-3-carboxamide], for which the IC50 was under 1000 nM.
As for `CN1CCC[C@@H](C(=O)Nc2cc3c(c(-c4ccc(C#N)cc4)c2)CN(C#N)C3)C1` [Example 26, (R)-N-(2-cyano-7-(4-cyanophenyl)isoindolin-5-yl)-1-methylpiperidine-3-carboxamide], the figure is under 1000 nM; as for `CN1CCC[C@@H](C(=O)Nc2cc3c(c(-c4cccc(C#N)c4)c2)CN(C#N)C3)C1` [Example 27, (R)-N-(2-cyano-7-(3-cyanophenyl)isoindolin-5-yl)-1-methylpiperidine-3-carboxamide], under 1000 nM; as for `CN1CCC[C@@H](C(=O)Nc2cc3c(c(-c4ccc(F)cc4)c2)CN(C#N)C3)C1` [Example 28, (R)-N-(2-cyano-7-(4-fluorophenyl)isoindolin-5-yl)-1-methylpiperidine-3-carboxamide], under 1000 nM.
As for `CNC(=O)c1ccc(-c2cc(NC(=O)[C@@H]3CCCN(C)C3)cc3c2CN(C#N)C3)cc1` [Example 29, (R)-N-(2-cyano-7-(4-(methylcarbamoyl)phenyl)isoindolin-5-yl)-1-methylpiperidine-3-carboxamide], the figure is under 1000 nM; as for `CNC(=O)c1cccc(-c2cc(NC(=O)[C@@H]3CCCN(C)C3)cc3c2CN(C#N)C3)c1` [Example 30], 1000 to 10000 nM.
Turning to `COc1cccc(-c2cc(NC(=O)[C@@H]3CCCN(C)C3)cc3c2CN(C#N)C3)c1` [Example 31, (R)-N-(2-cyano-7-(3-methoxyphenyl)isoindolin-5-yl)-1-methylpiperidine-3-carboxamide], the IC50 lay in the range of 1000 to 10000 nM.
For `COc1ccc(-c2cc(NC(=O)[C@@H]3CCCN(C)C3)cc3c2CN(C#N)C3)cc1` [Example 32, (R)-N-(2-cyano-7-(4-methoxyphenyl)isoindolin-5-yl)-1-methylpiperidine-3-carboxamide], the half-inhibitory concentration (IC50) is under 1000 nM.
Under `CN1CCC[C@@H](C(=O)Nc2cc3c(c(-c4ccc(Cl)cc4)c2)CN(C#N)C3)C1` [Example 33, (R)-N-(7-(4-chlorophenyl)-2-cyanoisoindolin-5-yl)-1-methylpiperidine-3-carboxamide] stands under 1000 nM; under `CN1CCC[C@@H](C(=O)Nc2cc3c(c(-c4cccc(Cl)c4)c2)CN(C#N)C3)C1` [Example 34, (R)-N-(7-(3-chlorophenyl)-2-cyanoisoindolin-5-yl)-1-methylpiperidine-3-carboxamide], 1000 to 10000 nM.
Under `Cc1nc2ccc(-c3cc(NC(=O)[C@@H]4CCCN(C)C4)cc4c3CN(C#N)C4)cc2o1` [Example 35, (R)-N-(2-cyano-7-(2-methylbenzo[d]oxazol-6-yl)isoindolin-5-yl)-1-methylpiperidine-3-carboxamide] stands under 1000 nM; under `CN1CCC[C@H](C(=O)Nc2cc3c(c(-c4ccccc4)c2)CN(C#N)C3)C1` [Example 37, (S)—N-(2-cyano-7-phenylisoindolin-5-yl)-1-methylpiperidine-3-carboxamide], under 1000 nM; under `CN1CCC[C@@H](C(=O)Nc2cc3c(c(-c4ccccc4)c2)CN(C#N)C3)C1` [Example 38, (R)—N-(2-cyano-7-phenylisoindolin-5-yl)-1-methylpiperidine-3-carboxamide], under 1000 nM.
Under `Cn1nccc1C(=O)Nc1cc2c(c(-c3ccccc3)c1)CN(C#N)C2` [Example 39, N-(2-cyano-7-phenylisoindolin-5-yl)-1-methyl-1H-pyrazole-5-carboxamide] stands 1000 to 10000 nM; under `N#CN1Cc2cc(NC(=O)C3CN(Cc4ccccc4)CCO3)cc(-c3ccccc3)c2C1` (stereo not shown) [Example 40, 4-benzyl-N-(2-cyano-7-phenylisoindolin-5-yl)morpholine-2-carboxamide], 1000 to 10000 nM.
Consider `N#CN1Cc2cc(NC(=O)CCc3cccnc3)cc(-c3ccccc3)c2C1` [Example 41, N-(2-cyano-7-phenylisoindolin-5-yl)-3-(pyridin-3-yl)propanamide], for which the IC50 lay in the range of 1000 to 10000 nM.
As to `N#CN1Cc2cc(NC(=O)C3CNC(=O)C3)cc(-c3ccccc3)c2C1` (stereo not shown) [Example 42, N-(2-cyano-7-phenylisoindolin-5-yl)-5-oxopyrrolidine-3-carboxamide], the concentration for half-maximal inhibition (IC50) was under 1000 nM.
As to `CN1CCC(C(=O)Nc2cc3c(c(-c4ccccc4)c2)CN(C#N)C3)C1` (stereo not shown) [Example 43, N-(2-cyano-7-phenyl-isoindolin-5-yl)-1-methylpyrrolidine-3-carboxamide], the IC50 was in the range of 30000 to 100000 nM.
On to `CN1CC(C(=O)Nc2cc3c(c(-c4ccccc4)c2)CN(C#N)C3)CCC1=O` (stereo not shown) [Example 44, N-(2-cyano-7-phenylisoindolin-5-yl)-1-methyl-6-oxopiperidine-3-carboxamide], for which the IC50 is under 1000 nM.
As for `CC(=O)N1CCCC(C(=O)Nc2cc3c(c(-c4ccccc4)c2)CN(C#N)C3)C1` (stereo not shown) [Example 45, 1-acetyl-N-(2-cyano-7-phenylisoindolin-5-yl)piperidine-3-carboxamide], the figure is 1000 to 10000 nM; as for `CN(C)C(=O)CCC(=O)Nc1cc2c(c(-c3ccccc3)c1)CN(C#N)C2` [Example 46, N1-(2-cyano-7-phenylisoindolin-5-yl)-N4,N4-dimethylsuccinamide], 1000 to 10000 nM; as for `CC(=O)N1CCC(C(=O)Nc2cc3c(c(-c4ccccc4)c2)CN(C#N)C3)CC1` [Example 47, 1-acetyl-N-(2-cyano-7-phenylisoindolin-5-yl)piperidine-4-carboxamide], under 1000 nM.
As for `CN1CCC(C(=O)Nc2cc3c(c(-c4ccccc4)c2)CN(C#N)C3)CC1` [Example 48, N-(2-cyano-7-phenylisoindolin-5-yl)-1-methylpiperidine-4-carboxamide], the figure is under 1000 nM; as for `CN(C)CC(=O)Nc1cc2c(c(-c3ccccc3)c1)CN(C#N)C2` [Example 49], under 1000 nM; as for `N#CN1Cc2cc(NC(=O)C3CCOCC3)cc(-c3ccccc3)c2C1` [Example 50, N-(2-cyano-7-phenylisoindolin-5-yl)tetrahydro-2H-pyran-4-carboxamide], under 1000 nM.
Under `N#CN1Cc2cc(NC(=O)C3CCS(=O)(=O)CC3)cc(-c3ccccc3)c2C1` [Example 51, N-(2-cyano-7-phenylisoindoin-5-yl)tetrahydro-2H-thiopyran-4-carboxamide 1,1-dioxide] stands 1000 to 10000 nM.
Regarding `CN1CC(C(=O)Nc2cc3c(c(-c4ccccc4)c2)CN(C#N)C3)CC1=O` (stereo not shown) [Example 52, N-(2-cyano-7-phenylisoindolin-5-yl)-1-methyl-5-oxopyrrolidine-3-carboxamide], the 50% inhibitory concentration (IC50) is under 1000 nM.
